According to patent US6861044B2, “Radioiodinated sulfonated phenols and process therefore” (The Dow Chemical Company, priority 1998, dated 2005):
Where “and” joins values, the source holds several entries; their conditions need not be identical. Equal values may be shown once.

What was measured:
[1] = molecular target: T1, thyroxine-binding globulin (Homo sapiens, UniProt P05543); settings: concentrations up to 0.2 mM; cited from earlier work
T1 sequence (P05543 21-415): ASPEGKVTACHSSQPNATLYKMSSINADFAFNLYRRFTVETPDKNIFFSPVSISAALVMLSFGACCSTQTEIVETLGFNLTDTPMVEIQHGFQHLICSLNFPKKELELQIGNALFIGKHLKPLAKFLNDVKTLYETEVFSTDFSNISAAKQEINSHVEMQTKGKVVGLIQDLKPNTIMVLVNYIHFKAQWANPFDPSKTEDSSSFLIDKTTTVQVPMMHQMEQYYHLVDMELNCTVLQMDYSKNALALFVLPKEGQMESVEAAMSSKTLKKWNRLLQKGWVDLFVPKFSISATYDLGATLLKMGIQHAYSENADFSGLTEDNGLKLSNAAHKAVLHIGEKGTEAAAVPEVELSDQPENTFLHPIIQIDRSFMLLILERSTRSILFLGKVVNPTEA

albumin = albumin (Homo sapiens, UniProt P02768); settings: concentrations up to 0.2 mM; cited from earlier work
prealbumin = prealbumin (Homo sapiens, UniProt P02766); settings: concentrations up to 0.2 mM; cited from earlier work
[2] = Rat biodistribution 1 hour after tail vein injection; format: in vivo, Sprague-Dawley rats; settings: for Activity in the thyroid / Radioactivity in / cleared from the body: rats
Description: (§1) The radioiodinated HBS (^131I-HBS) solution (100 μL), prepared in Example 3, was injected […] into a tail vein of three Sprague-Dawley rats (180-220 g). After one hour, the animals were sacrificed and the tissues and organs of interest were removed and weighed. The amount of radioactivity in each organ was determined by counting the tissue sample with a sodium iodide detector coupled to a multi-channel analyzer. The counts in the tissues were compared to the average counts of three 100 μL aliquots of ^131I-HBS counted in the same manner. The percentage of dose in the bone was calculated by assuming the femur to represent 1/25 the weight of the total skeletal system. The blood dose was calculated by assuming that blood comprises 6.5% of the total body weight. Muscle dose was calculated by assuming that muscle comprises 43% of the total body weight.
The biodistribution of the radioiodinated tyramine prepared in Example 6 was determined as in Example 4 (using 2 rats).

[3] = Two hour rat biodistribution after intrathecal administration; format: in vivo, Sprague-Dawley rats
Description: as §1
An I-HBS solution was prepared as in Example 3. Twenty μL of this solution was injected intrathecally in two Sprague-Dawley rats (100-150 g). After two hours the rats were sacrificed and dissected. The amount of radio activity in various organs and tissues was determined as in Example 4.

[4] = 1 hour post injection, tail vein
[5] = average of three rats, 1 Hour After Injection, tail vein
[6] = individual rat, 1 Hour After Injection, tail vein
[7] = average of two rats, two hours after intrathecal administration of 20 μL
[8] = two hours after intrathecal administration, rats
[9] = average of 2 rats, determined as in Example 4 (percent of dose, 1 hour post injection, tail vein)
[10] = individual rat, determined as in Example 4 (percent of dose, 1 hour post injection, tail vein)

Chain of albumin (P02768 25-609, species assumed): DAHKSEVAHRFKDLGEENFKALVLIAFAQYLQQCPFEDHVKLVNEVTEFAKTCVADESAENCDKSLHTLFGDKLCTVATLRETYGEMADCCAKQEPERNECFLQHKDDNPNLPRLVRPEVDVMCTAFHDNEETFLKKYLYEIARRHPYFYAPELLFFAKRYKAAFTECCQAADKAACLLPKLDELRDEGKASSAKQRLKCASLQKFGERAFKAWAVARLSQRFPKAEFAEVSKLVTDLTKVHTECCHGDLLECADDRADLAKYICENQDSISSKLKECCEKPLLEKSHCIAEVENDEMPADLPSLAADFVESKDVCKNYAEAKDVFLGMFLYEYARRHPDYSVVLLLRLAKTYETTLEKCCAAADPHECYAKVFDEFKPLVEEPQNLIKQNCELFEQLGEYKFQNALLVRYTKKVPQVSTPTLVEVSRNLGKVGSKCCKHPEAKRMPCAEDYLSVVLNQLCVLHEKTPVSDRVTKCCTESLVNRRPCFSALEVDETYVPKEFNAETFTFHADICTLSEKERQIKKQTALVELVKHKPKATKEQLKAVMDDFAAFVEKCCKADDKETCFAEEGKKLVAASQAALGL

O=S(=O)(O)c1cc(I)c(O)c(I)c1 [diiodophenolsulphonic acid, 3,5-diiodo-4-hydroxybenzenesulphonic acid]
Displacement of triiodothyronine from thyroxine-binding globulin [1]: did not displace
Displacement of triiodothyronine from albumin (albumin): did not displace
Displacement of thyroxine from prealbumin-binding sites (prealbumin): did selectively display thyroxine

O=S(=O)([O-])c1ccc(O)c([131I])c1.[Na+] [^131I-HBS]
Activity in the urine ([2]; 1 hour post injection, all animals): Almost all the activity
Activity in the thyroid [2, 4]: lack of activity
Radioactivity in / cleared from the body [2, 4]: very little activity
Percent Injected Dose, Heart, Average [2, 5]: 0.01 Percent Injected Dose
Percent Injected Dose, Kidney, Average [2, 5]: 0.12 Percent Injected Dose
Percent Injected Dose, Lg. Int., Average [2, 5]: 0.08 Percent Injected Dose
Percent Injected Dose, Liver, Average [2, 5]: 0.06 Percent Injected Dose
Percent Injected Dose, Lung, Average [2, 5]: 0.02 Percent Injected Dose
Percent Injected Dose, Sm Int., Average [2, 5]: 1.10 Percent Injected Dose
Percent Injected Dose, Spleen, Average [2, 5]: 0.00 Percent Injected Dose
Percent Injected Dose, Stomach, Average [2, 5]: 0.29 Percent Injected Dose
Percent Injected Dose, Tail, Average [2, 5]: 0.08 Percent Injected Dose
Percent Injected Dose, Thyroid, Average [2, 5]: 0.00 Percent Injected Dose
Percent Injected Dose, Blood, Average ([2]; average of three rats, 1 Hour After Injection, tail vein, blood taken as 6.5% of body weight): 0.16 Percent Injected Dose
Percent Injected Dose, Bone, Average ([2]; average of three rats, 1 Hour After Injection, tail vein, femur taken as 1/25 of skeleton): 1.00 Percent Injected Dose
Percent Injected Dose, Muscle, Average ([2]; average of three rats, 1 Hour After Injection, tail vein, muscle taken as 43% of body weight): 0.40 Percent Injected Dose
Percent Injected Dose, Heart [2, 6]: 0.01 Percent Injected Dose (2×) and 0.02 Percent Injected Dose
Percent Injected Dose, Kidney [2, 6]: 0.19 Percent Injected Dose and 0.10 Percent Injected Dose and 0.08 Percent Injected Dose
Percent Injected Dose, Lg. Int. [2, 6]: 0.08 Percent Injected Dose and 0.12 Percent Injected Dose and 0.05 Percent Injected Dose
Percent Injected Dose, Liver [2, 6]: 0.05 Percent Injected Dose and 0.08 Percent Injected Dose and 0.06 Percent Injected Dose
Percent Injected Dose, Lung [2, 6]: 0.01 Percent Injected Dose and 0.03 Percent Injected Dose and 0.02 Percent Injected Dose
Percent Injected Dose, Sm Int. [2, 6]: 1.51 Percent Injected Dose and 0.67 Percent Injected Dose and 1.24 Percent Injected Dose
Percent Injected Dose, Spleen [2, 6]: 0.01 Percent Injected Dose (2×) and 0.00 Percent Injected Dose
Percent Injected Dose, Stomach [2, 6]: 0.33 Percent Injected Dose and 0.31 Percent Injected Dose and 0.24 Percent Injected Dose
Percent Injected Dose, Tail [2, 6]: 0.01 Percent Injected Dose and 0.16 Percent Injected Dose and 0.09 Percent Injected Dose
Percent Injected Dose, Thyroid [2, 6]: 0.00 Percent Injected Dose
Percent Injected Dose, Blood ([2]; individual rat, 1 Hour After Injection, tail vein, blood taken as 6.5% of body weight): 0.14 Percent Injected Dose and 0.18 Percent Injected Dose and 0.15 Percent Injected Dose
Percent Injected Dose, Bone ([2]; individual rat, 1 Hour After Injection, tail vein, femur taken as 1/25 of skeleton): 0.37 Percent Injected Dose and 0.16 Percent Injected Dose
Percent Injected Dose, Muscle ([2]; individual rat, 1 Hour After Injection, tail vein, muscle taken as 43% of body weight): 0.88 Percent Injected Dose and 0.38 Percent Injected Dose and 0.05 Percent Injected Dose
% Injected Dose, Bladder [3, 7]: 0.3 % Injected Dose
% Injected Dose, Blood [3, 7]: 0.7 % Injected Dose
% Injected Dose, Bone [3, 7]: 1.3 % Injected Dose
% Injected Dose, Brain [3, 7]: 1.6 % Injected Dose
% Injected Dose, Caecum [3, 7]: 0.0 % Injected Dose
% Injected Dose, Colon [3, 7]: 0.9 % Injected Dose
% Injected Dose, Heart [3, 7]: 0.0 % Injected Dose
% Injected Dose, Kidney [3, 7]: 0.3 % Injected Dose
% Injected Dose, Liver [3, 7]: 0.2 % Injected Dose
% Injected Dose, Lung [3, 7]: 0.0 % Injected Dose
% Injected Dose, Muscle [3, 7]: 0.5 % Injected Dose
% Injected Dose, Sm. Intestine [3, 7]: 0.5 % Injected Dose
% Injected Dose, Spleen [3, 7]: 0.0 % Injected Dose
% Injected Dose, Stomach [3, 7]: 0.3 % Injected Dose
% Injected Dose, Thyroid [3, 7]: 0.0 % Injected Dose
% Injected Dose, Urine ([3]; average of two rats, two hours after intrathecal administration of 20 μL, recovery of urine may have been less than quantitative): 88 % Injected Dose
Clearance of radioactivity through the kidney [3, 8]: had cleared the kidney
Radioactivity present in the thyroid [3, 8]: little or no radioactivity

NCCc1ccc(O)c([131I])c1 [radioiodinated tyramine]
Activity in the thyroid [2, 4]: very little
Radioactivity in / cleared from the body [2, 4]: most radioactivity had cleared the body
Biodistribution, Blood, Average [2, 9]: 1.13
Biodistribution, Bone, Average [2, 9]: 0.25
Biodistribution, Heart, Average [2, 9]: 0.03
Biodistribution, Kidney, Average [2, 9]: 0.26
Biodistribution, Lg. Int., Average [2, 9]: 1.24
Biodistribution, Liver, Average [2, 9]: 0.52
Biodistribution, Lung, Average [2, 9]: 0.15
Biodistribution, Muscle, Average [2, 9]: 1.09
Biodistribution, Sm. Int., Average [2, 9]: 4.07
Biodistribution, Spleen, Average [2, 9]: 0.01
Biodistribution, Stomach, Average [2, 9]: 0.43
Biodistribution, Tail, Average [2, 9]: 0.49
Biodistribution, Thyroid, Average [2, 9]: 0.09
Biodistribution, Blood [2, 10]: 1.19 and 1.06
Biodistribution, Bone [2, 10]: 0.30 and 0.20
Biodistribution, Heart [2, 10]: 0.03 and 0.02
Biodistribution, Kidney [2, 10]: 0.26 and 0.25
Biodistribution, Lg. Int. [2, 10]: 0.46 and 2.02
Biodistribution, Liver [2, 10]: 0.46 and 0.57
Biodistribution, Lung [2, 10]: 0.03 and 0.26
Biodistribution, Muscle [2, 10]: 1.31 and 0.87
Biodistribution, Sm. Int. [2, 10]: 3.47 and 4.67
Biodistribution, Spleen [2, 10]: 0.01
Biodistribution, Stomach [2, 10]: 0.37 and 0.48
Biodistribution, Tail [2, 10]: 0.77 and 0.20
Biodistribution, Thyroid [2, 10]: 0.12 and 0.07
